Like-named read-outs stand apart in the source and are kept apart here.
Columns and labels:
[1] = tested on: A. baumannii; type: cell-based
From the text: The broth microdilution technique was utilized to assess the MIC of designed peptides according to the guidelines of the Clinical and Laboratory Standards Institute (CLSI)[37].

[2] = tested on: C. elegans strain glp-4;sek 1; experiment: Toxicity of peptides in uninfected C. elegans; type: in vivo, Caenorhabditis elegans; conditions: worms grown four days with peptide; D-RR4 and colistin at 8 × MIC
Protocol: To test the efficacy of the synthetic peptides to protect against infections in vivo, we utilized a C. elegans model of bacterial infection. This model has been used extensively for early-stage evaluation of promising antimicrobials, [35], [36]. Initially, the lethal dose of D-RR4 against uninfected nematodes was determined.
(A) Evaluation of toxicity of peptides in Caenorhabditis elegans. C. elegans strain glp-4;sek 1 was grown for four days in the presence of peptides at different concentrations. Worms were monitored daily and the live worms were counted. Results are expressed as a Kaplan-Meier survival curve. (B) Evaluation of antimicrobial activity of peptides to reduce the bacterial CFU inside infected Caenorhabditis elegans. C. elegans strain glp-4; sek 1 were infected with P. aeruginosa PAO1, colistin-resistant P. aeruginosa 1109, or A. baumannii ATCC BAA-1605. […] After treatment, worms were lysed and bacteria were counted. One asterisk (*) indicates significant difference with the negative control. Two asterisks (**) indicates significant difference with the monotherapy treatment (P < 0.05). Results are expressed as means from three biological replicates ± standard deviation. (C) Efficacy of peptides in a Caenorhabditis elegans model of bacterial infection. […] Worms were monitored daily and the live worms were counted. Results are expressed as a Kaplan-Meier survival curve. C. elegans receiving no treatment served as a negative control.

Colistin [reference compound]
MIC ([1]; strain ATCC 19606): 0.125 µM | MIC ([1]; strain ATCC BAA-747): 0.25 µM | MIC ([1]; strain ATCC BAA-1605): 0.25 µM | MIC ([1]; strain NR-9667): 0.0625 µM | MIC ([1]; strain NR-13374): 0.125 µM | MIC ([1]; strain NR-13375): 0.125 µM | MIC ([1]; strain NR-13382): 0.5 µM | MIC ([1]; strain NR-17777): 0.5 µM | MIC ([1]; strain NR-17778): 0.0625 µM | MIC ([1]; strain NR-17780): 0.25 µM | MIC ([1]; strain NR-17783): 0.0625 µM | MIC ([1]; strain NR-17784): 0.0625 µM | MIC ([1]; strain NR-17785): 0.25 µM | MIC ([1]; strain NR-17786): 0.0625 µM | MIC ([1]; strain NR-19298): 0.25 µM | MIC ([1]; strain NR-19299): 0.25 µM | toxicity to uninfected worms [2]: not toxic
